Measurements as given in publication PMC9741652, “CRL2^ZER1/ZYG11B recognizes small N-terminal residues for degradation” (Nature Communications, 2022).
Blank lines part the entries; values can stand above or below the substance they belong to. No end group written: not given here.

How the values were obtained:
[1] = molecular target: T1, ZYG11B (residues 490–728) (Homo sapiens, UniProt Q9C0D3); assay: ITC of peptides titrated into ZYG11B; conditions: ZYG11B residues 490–728, 20 mM Tris-HCl pH 7.5, 150 mM NaCl, 16 °C, repeated at least twice, NB = no detectable binding
T1 construct: ZYG11B (residues 490–728) bearing an N-terminal SELF; 8xHis-SUMO (N, cleaved yes); made in house; host or cells: E. coli BL21 (DE3)
Excerpt: (§1) To further investigate the binding specificity of ZER1 and ZYG11B, we synthesized a set of eight-residue peptides (sequence: XFLHVGQD, X = any free Nt-residue), and carried out isothermal titration calorimetry (ITC) assays to quantify their binding affinities for ZER1 and ZYG11B. […] The rest of Nt-residues were disallowed for the binding to both ZER1 and ZYG11B (Fig. 1e, and Supplementary Fig. 1c–f).
(§2) ZYG11B (residues 490–728) bearing an N-terminal SELF generated by a modified pET28-MKH8SUMO (Addgene Plasmid #79526) vector and ZER1 (residues 469–766) bearing an N-terminal MEEL sequence generated by pNIC-CH (Addgene Plasmid #26117) vector were used to perform isothermal titration calorimetry (ITC) assays, as previously described. Proteins (concentration 50–70 μM) and peptides (concentration 0.5–1.5 mM) solutions were prepared in an ITC buffer consisting of 20 mM Tris-HCl (pH 7.5) and 150 mM NaCl. The ITC measurements were recorded at 16 °C with a MicroCal PEAQ-ITC instrument (Malvern Panalytical). 1.5 μL of each peptide (except for first injection using 0.5 μL peptide) was titrated into a 300 μL cell of the protein with 120 s incubation time between the injections. The reference power was controlled at […]. The acquired data were analyzed using MicroCal PEAQ-ITC Analysis Software version 1.30. Each experiment was repeated at least twice independently with similar results.

[2] = molecular target: T2, ZER1 N597A (residues 469–766) (Homo sapiens, UniProt Q7Z7L7, N597A); assay: ITC of peptides with mutant ZER1 N597A; conditions: mutant ZER1 residues 469–766, NB = no detectable binding
T2 construct: wild-type (WT) and mutant ZER1 (residues 469–766) titrated with SFLHVGQD peptide; made in house; host or cells: E. coli BL21 (DE3)
Excerpt: (§3) To verify the functional importance of the residues involved in substrate binding, we generated single-point mutants of the binding pocket residues in ZER1 and ZYG11B. […] In addition, mutating the third-residue-interacting N553 into alanine caused a significant reduction in substrate binding (Fig. 3e, and Supplementary Fig. 4a–c).
as §2

[3] = molecular target: T3, ZER1 E600A (residues 469–766) (Homo sapiens, UniProt Q7Z7L7, E600A); assay: ITC of peptides with mutant ZER1 E600A; type: binding; conditions: mutant ZER1 residues 469–766
T3 construct: wild-type (WT) and mutant ZER1 (residues 469–766) titrated with SFLHVGQD peptide; made in house; host or cells: E. coli BL21 (DE3)
Excerpt: as §3, §2

[4] = molecular target: T4, ZER1 W552A (residues 469–766) (Homo sapiens, UniProt Q7Z7L7, W552A); assay: ITC of peptides with mutant ZER1 W552A; conditions: mutant ZER1 residues 469–766, NB = no detectable binding
T4 construct: wild-type (WT) and mutant ZER1 (residues 469–766) titrated with SFLHVGQD peptide; made in house; host or cells: E. coli BL21 (DE3)
Excerpt: as §3, §2

[5] = molecular target: T5, ZER1 D556A (residues 469–766) (Homo sapiens, UniProt Q7Z7L7, D556A); assay: ITC of peptides with mutant ZER1 D556A; type: binding; conditions: mutant ZER1 residues 469–766
T5 construct: wild-type (WT) and mutant ZER1 (residues 469–766) titrated with SFLHVGQD peptide; made in house; host or cells: E. coli BL21 (DE3)
Excerpt: as §3, §2

ZER1 (residues 469–766) = molecular target: T6, ZER1 (residues 469–766) (Homo sapiens, UniProt Q7Z7L7); assay: ITC of peptides titrated into ZER1; type: binding; conditions: wild-type ZER1 residues 469–766
T6 construct: made in house; host or cells: E. coli BL21 (DE3)
Excerpt: as §1, §2

T2 sequence (Q7Z7L7 469-766 N597A): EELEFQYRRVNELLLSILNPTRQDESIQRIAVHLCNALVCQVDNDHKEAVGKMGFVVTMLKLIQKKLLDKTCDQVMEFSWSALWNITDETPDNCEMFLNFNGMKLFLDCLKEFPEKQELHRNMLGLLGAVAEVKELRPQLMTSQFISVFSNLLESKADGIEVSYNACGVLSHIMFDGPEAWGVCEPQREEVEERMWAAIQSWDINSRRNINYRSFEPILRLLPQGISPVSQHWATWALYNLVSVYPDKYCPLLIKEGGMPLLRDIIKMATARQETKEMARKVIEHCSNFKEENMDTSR
T1 sequence (Q9C0D3 490-728): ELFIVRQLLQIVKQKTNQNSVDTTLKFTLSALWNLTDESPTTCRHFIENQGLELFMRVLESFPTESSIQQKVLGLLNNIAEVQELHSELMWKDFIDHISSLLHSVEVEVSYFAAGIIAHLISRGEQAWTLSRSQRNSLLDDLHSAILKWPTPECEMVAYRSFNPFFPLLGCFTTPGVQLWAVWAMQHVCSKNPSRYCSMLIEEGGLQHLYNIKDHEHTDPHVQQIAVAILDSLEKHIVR
T3 sequence (Q7Z7L7 469-766 E600A): as the sequence (Q7Z7L7 469-766 N597A) above, with A129N, E132A counted along it
T5 sequence (Q7Z7L7 469-766 D556A): as the sequence (Q7Z7L7 469-766 N597A) above, with D88A, A129N counted along it
T4 sequence (Q7Z7L7 469-766 W552A): as the sequence (Q7Z7L7 469-766 N597A) above, with W84A, A129N counted along it
T6 sequence (Q7Z7L7 469-766): as the sequence (Q7Z7L7 469-766 N597A) above, with A129N counted along it

Kd [1]: > 100 µM
Substance: H-VFLHVGQD [VFLHVGQD]

Kd [2]: > 100 µM
Kd [3]: > 100 µM
Kd [4]: > 100 µM
Kd [5]: > 100 µM
Substance: SFLHVGQD [SFLHVGQD]

binding to ZER1, in words (ZER1 (residues 469–766)): readily bind
Substance: SGRGKQGGKA [H2A peptide]
